From PubChem BioAssay AID1259407 (Chemical Carcinogenesis Research Information System (CCRIS), 2018) come the findings set out here.

The series concerns CCRIS mutagenicity, Ames/micronucleus/aberration tests. The series is described as follows: CCRIS mutagenicity studies.
The mark [1] stands for this setting: Test System: AMES SALMONELLA TYPHIMURIUM, Strain/Indicator: TA98, Metabolic Activation: NONE, Method: PREINCUBATION
[2] abbreviates: Test System: AMES SALMONELLA TYPHIMURIUM, Strain/Indicator: TA97, Metabolic Activation: NONE, Method: PREINCUBATION
The mark [3] stands for this setting: Test System: AMES SALMONELLA TYPHIMURIUM, Strain/Indicator: TA97, Metabolic Activation: RAT, LIVER, S-9, AROCLOR 1254, Method: PREINCUBATION
The mark [4] stands for this setting: Test System: AMES SALMONELLA TYPHIMURIUM, Strain/Indicator: TA100, Metabolic Activation: NONE, Method: PREINCUBATION
Where [5] appears, read: Test System: AMES SALMONELLA TYPHIMURIUM, Strain/Indicator: TA100, Metabolic Activation: RAT, LIVER, S-9, AROCLOR 1254, Method: PREINCUBATION

The source made the active and inactive calls. No rule for the calls is given here.

`CC(=O)c1cc(O)c(C(C)C)c2cc(C)c(-c3c(C)cc4c(C(C)C)c(O)c(O)c(C=O)c4c3O)c(O)c12`: the mutagenic call is “inactive; negative” (Test System: AMES SALMONELLA TYPHIMURIUM, Strain/Indicator: TA97A, Metabolic Activation: S-9, Method: STANDARD PLATE); “inactive; negative” (Test System: AMES SALMONELLA TYPHIMURIUM, Strain/Indicator: TA98, Metabolic Activation: S-9, Method: STANDARD PLATE); “inactive; negative” (Test System: AMES SALMONELLA TYPHIMURIUM, Strain/Indicator: TA100, Metabolic Activation: S-9, Method: STANDARD PLATE); “inactive; negative” (Test System: AMES SALMONELLA TYPHIMURIUM, Strain/Indicator: TA102, Metabolic Activation: S-9, Method: STANDARD PLATE).
Consider `CC(=O)OCc1ccc2ccc3cccc4ccc1c2c34`, for which the mutagenic call under setting [1] is “active; positive”.
With `CCCCCCCCCCCCC1CCC1=O` (centres undefined), the mutagenic call was “active; positive (at highest dose)” (End Point: In vitro micronucleus, Test System: Human TK6 lymphoblasts, Metabolic Activation: None); “active; positive (at highest dose)” (End Point: In vitro micronucleus, Test System: Human TK6 lymphoblasts, Metabolic Activation: Rat, Liver, S-9, Aroclor (1%)); “inactive; negative” (Test System: Ames Salmonella typhimurium, Strain/Indicator: TA98, Metabolic Activation: None, Method: Microtiter plate-based Miniscreen assay); “inactive; negative” (Test System: Ames Salmonella typhimurium, Strain/Indicator: TA98, Metabolic Activation: Rat, Liver, S-9, Aroclor 1254 (5%), Method: Microtiter plate-based Miniscreen assay); “inactive; negative” (Test System: Ames Salmonella typhimurium, Strain/Indicator: TA100, Metabolic Activation: None, Method: Microtiter plate-based Miniscreen assay); “inactive; negative” (Test System: Ames Salmonella typhimurium, Strain/Indicator: TA100, Metabolic Activation: Rat, Liver, S-9, Aroclor 1254 (5%), Method: Microtiter plate-based Miniscreen assay). Moreover, the mutagenic call by setting is: (Test System: Ames Salmonella typhimurium, Strain/Indicator: TA1535, Metabolic Activation: None, Method: Microtiter plate-based Miniscreen assay) “inactive; negative”; (Test System: Ames Salmonella typhimurium, Strain/Indicator: TA1535, Metabolic Activation: Rat, Liver, S-9, Aroclor 1254 (5%), Method: Microtiter plate-based Miniscreen assay) “inactive; negative”; (Test System: Ames Salmonella typhimurium, Strain/Indicator: TA1537, Metabolic Activation: None, Method: Microtiter plate-based Miniscreen assay) “inactive; negative”; (Test System: Ames Salmonella typhimurium, Strain/Indicator: TA1537, Metabolic Activation: Rat, Liver, S-9, Aroclor 1254 (5%), Method: Microtiter plate-based Miniscreen assay) “inactive; negative”.
For the compound `O=C(Nc1nc(-c2ccc([N+](=O)[O-])o2)cs1)C(F)(F)F`, the mutagenic call reads like this: (Test System: AMES SALMONELLA TYPHIMURIUM, Strain/Indicator: TA100, Metabolic Activation: RAT, LIVER, S-9, KC500 OR PHENOBARBITAL, Method: LIQUID SUSPENSION) “active; positive”; (Test System: E. COLI WP2, Strain/Indicator: WP2, Metabolic Activation: NONE, Method: SPOT) “active; positive”.
As for `Cc1cn([C@H]2C[C@H](O)[C@@H](CO)O2)c(=O)[nH]c1=O`, the mutagenic call under setting [2] is “inactive; negative”; the mutagenic call under setting [3] was “inactive; negative”; the mutagenic call under setting [4] is “inactive; negative”; the mutagenic call under setting [5] was “inactive; negative”; the mutagenic call (Test System: CHINESE HAMSTER V-79, Strain/Indicator: V-79 (HPRT)/6-THIOGUANINE, Metabolic Activation: NONE, Method: STANDARD PLATE) was “inactive; negative”; the mutagenic call (Test System: CHINESE HAMSTER V-79, Strain/Indicator: V-79/6-THIOGUANINE, Metabolic Activation: NONE, Method: STANDARD PLATE) is “active; positive”. The mutagenic call (Test System: CHINESE HAMSTER V-79, Strain/Indicator: V-79/8-AZAGUANINE, Metabolic Activation: NONE) was “inactive; negative”.
Take `NC(=O)/C=C/c1ccc([N+](=O)[O-])o1`: the mutagenic call reads like this: under setting [1], “active; positive”; (Test System: UDS HUMAN FIBROBLASTS, Strain/Indicator: THY INCORP (NON-S-PHASE), Metabolic Activation: NONE, Method: AUTORADIOGRAPHY) “active; positive”.
On to `Fc1ccc2cccnc2c1F`, for which the mutagenic call (Test System: AMES SALMONELLA TYPHIMURIUM, Strain/Indicator: TA100, Metabolic Activation: RAT LIVER S-9, PHENOBARBITAL AND 5,6-BENZOFLAVONE, Method: PREINCUBATION) was “active; positive”.
For `O=P(O)(O)O`, the mutagenic call reads like this: (End Point: IN VITRO CHROMOSOMAL ABERRATIONS, Test System: CHO CELLS, Metabolic Activation: NONE) “inactive; negative”; (End Point: IN VITRO CHROMOSOMAL ABERRATIONS, Test System: CHO CELLS, Metabolic Activation: RAT, LIVER, S-9, AROCLOR 1254) “active; positive”; (Test System: AMES SALMONELLA TYPHIMURIUM, Strain/Indicator: TA97, Metabolic Activation: HAMSTER, LIVER, S-9, AROCLOR 1254, Method: PREINCUBATION) “inactive; negative”; under setting [2], “inactive; negative”; (Test System: AMES SALMONELLA TYPHIMURIUM, Strain/Indicator: TA97, Metabolic Activation: NONE, Method: STANDARD PLATE) “inactive; negative”; under setting [3], “inactive; negative”. The mutagenic call is “inactive; negative” (Test System: AMES SALMONELLA TYPHIMURIUM, Strain/Indicator: TA97, Metabolic Activation: RAT, LIVER, S-9, PHENOBARBITAL, Method: STANDARD PLATE); “inactive; negative” (Test System: AMES SALMONELLA TYPHIMURIUM, Strain/Indicator: TA97, Metabolic Activation: S-9, Method: PREINCUBATION); “inactive; negative” (Test System: AMES SALMONELLA TYPHIMURIUM, Strain/Indicator: TA98, Metabolic Activation: HAMSTER, LIVER, S-9, AROCLOR 1254, Method: PREINCUBATION); “inactive; negative” under setting [1]; “inactive; negative” (Test System: AMES SALMONELLA TYPHIMURIUM, Strain/Indicator: TA98, Metabolic Activation: NONE, Method: STANDARD PLATE); “inactive; negative” (Test System: AMES SALMONELLA TYPHIMURIUM, Strain/Indicator: TA98, Metabolic Activation: RAT, LIVER, S-9, AROCLOR 1254, Method: PREINCUBATION). The mutagenic call (Test System: AMES SALMONELLA TYPHIMURIUM, Strain/Indicator: TA98, Metabolic Activation: RAT, LIVER, S-9, PHENOBARBITAL, Method: STANDARD PLATE) was “inactive; negative”; the mutagenic call (Test System: AMES SALMONELLA TYPHIMURIUM, Strain/Indicator: TA100, Metabolic Activation: HAMSTER, LIVER, S-9, AROCLOR 1254, Method: PREINCUBATION) was “inactive; negative”; the mutagenic call under setting [4] was “inactive; negative”; the mutagenic call (Test System: AMES SALMONELLA TYPHIMURIUM, Strain/Indicator: TA100, Metabolic Activation: NONE, Method: STANDARD PLATE) was “inactive; negative”; the mutagenic call under setting [5] was “inactive; negative”; the mutagenic call (Test System: AMES SALMONELLA TYPHIMURIUM, Strain/Indicator: TA100, Metabolic Activation: RAT, LIVER, S-9, PHENOBARBITAL, Method: STANDARD PLATE) was “inactive; negative”. For the same compound, the mutagenic call runs as follows: (Test System: AMES SALMONELLA TYPHIMURIUM, Strain/Indicator: TA102, Metabolic Activation: NONE, Method: PREINCUBATION) “inactive; negative”; (Test System: AMES SALMONELLA TYPHIMURIUM, Strain/Indicator: TA102, Metabolic Activation: RAT, LIVER, S-9, AROCLOR 1254, Method: PREINCUBATION) “inactive; negative”; (Test System: AMES SALMONELLA TYPHIMURIUM, Strain/Indicator: TA102, Metabolic Activation: S-9, Method: PREINCUBATION) “inactive; negative”; (Test System: AMES SALMONELLA TYPHIMURIUM, Strain/Indicator: TA104, Metabolic Activation: NONE, Method: STANDARD PLATE) “inactive; negative”; (Test System: AMES SALMONELLA TYPHIMURIUM, Strain/Indicator: TA104, Metabolic Activation: RAT, LIVER, S-9, PHENOBARBITAL, Method: STANDARD PLATE) “inactive; negative”; (Test System: AMES SALMONELLA TYPHIMURIUM, Strain/Indicator: TA1535, Metabolic Activation: NONE, Method: PREINCUBATION) “inactive; negative”. Moreover, the mutagenic call is, setting by setting: (Test System: AMES SALMONELLA TYPHIMURIUM, Strain/Indicator: TA1537, Metabolic Activation: HAMSTER, LIVER, S-9, AROCLOR 1254, Method: PREINCUBATION) “inactive; negative”; (Test System: AMES SALMONELLA TYPHIMURIUM, Strain/Indicator: TA1537, Metabolic Activation: NONE, Method: PREINCUBATION) “inactive; negative”; (Test System: AMES SALMONELLA TYPHIMURIUM, Strain/Indicator: TA1537, Metabolic Activation: RAT, LIVER, S-9, AROCLOR 1254, Method: PREINCUBATION) “inactive; negative”.
